Assay results taken from ChEMBL document CHEMBL1201862, “PubChem BioAssay data set” (2004).
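Step 1: Grow cells in 96-well plates. Step 2: Expose to compound for 48 hours at 5 concentrations. Step 3: Interpolate endpoints linearly; if unreached, use highest concentration. GI50 is the concentration that inhibits growth by half.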 The source made the active and inactive calls. Cut-off read from the data, not from the text of the source: active = GI50 up to about 1.1 µM and inactive = higher.

Columns and labels:
Assay in all cases: NCI-60 cell line screen, 48 h
[1] = system: CAKI-1
[2] = system: CCRF-CEM
[3] = system: COLO 205
[4] = system: HCC 2998
[5] = system: HCT-116
[6] = system: HL-60
[7] = system: HT-29
[8] = system: MDA-MB-231
[9] = system: MOLT-4
[10] = system: NCI/ADR-RES
[11] = system: OVCAR-3
[12] = system: OVCAR-4
[13] = system: OVCAR-5
[14] = system: OVCAR-8
[15] = system: PC-3
[16] = system: RXF 393
[17] = system: SF-295
[18] = system: SF-539
[19] = system: SNB-19
[20] = system: SNB-75

SMILES | GI50 [1] | GI50 [2] | GI50 [3] | GI50 [4] | GI50 [5] | GI50 [6] | GI50 [7] | GI50 [8] | GI50 [9] | GI50 [10] | GI50 [11] | GI50 [12] | GI50 [13] | GI50 [14] | GI50 [15] | GI50 [16] | GI50 [17] | GI50 [18] | GI50 [19] | GI50 [20]
C=CCNC1=C2C[C@@H](C)C[C@@H](OC)[C@@H](OC(=O)CCCN)[C@H](C)/C=C(\C)[C@@H](OC(N)=O)[C@H](OC)/C=C\C=C(/C)C(=O)NC(=CC1=O)C2=O | 19.8 µM (inactive) | 10.6 µM (inactive) | 3.54 µM (inactive) | 15.5 µM (inactive) | 15.7 µM (inactive) | 4.43 µM (inactive) | 5.37 µM (inactive) | 15 µM (inactive) | 14 µM (inactive) | > 100 µM (inactive) | 16.7 µM (inactive) | 20.6 µM (inactive) | 16 µM (inactive) | 19.4 µM (inactive) | 14 µM (inactive) | 20 µM (inactive) | 15.9 µM (inactive) | 12.6 µM (inactive) | 15.8 µM (inactive) | 10.4 µM (inactive)
c1cnc2c(c1)ccc1cccnc12 | 3.18 µM (inactive) | 1.87 µM (inactive) | 4.27 µM (inactive) | 6.7 µM (inactive) | 3.78 µM (inactive) | 0.354 µM (active) | 4.55 µM (inactive) | > 42.1 µM (inactive) | 2.86 µM (inactive) | 2.37 µM (inactive) | 6.67 µM (inactive) | 4.63 µM (inactive) | 5.31 µM (inactive) | 4.36 µM (inactive) | > 27.1 µM (inactive) | 4.48 µM (inactive) | 3.52 µM (inactive) | 3.72 µM (inactive) | 8.57 µM (inactive) | 13.6 µM (inactive)
COc1cccc2c1C(=O)C1=C(C2=O)C(O)CC(C)(C)O1 (stereo not given) | 50.7 µM (inactive) | 23.4 µM (inactive) | 23.5 µM (inactive) | 33.6 µM (inactive) | 24 µM (inactive) | 11.7 µM (inactive) | 37.7 µM (inactive) | 25.6 µM (inactive) | 29 µM (inactive) | 28.7 µM (inactive) | 13.1 µM (inactive) | 19.3 µM (inactive) | 58.9 µM (inactive) | 27.7 µM (inactive) | 25.5 µM (inactive) | 71 µM (inactive) | 70.3 µM (inactive) | 37.9 µM (inactive) | 76.7 µM (inactive) | > 100 µM (inactive)
COC(=O)c1cc(C)ccc1/C=C1\Cc2c(C)cc(C)cc2C1=O | 30.6 µM (inactive) | > 100 µM (inactive) | > 100 µM (inactive) | > 100 µM (inactive) | 8.41 µM (inactive) | 21.9 µM (inactive) | 10.8 µM (inactive) | > 36.6 µM (inactive) | > 100 µM (inactive) | 64.3 µM (inactive) | 70.6 µM (inactive) | 24.4 µM (inactive) | > 43.9 µM (inactive) | 47 µM (inactive) | > 39.8 µM (inactive) | 16.1 µM (inactive) | 3.61 µM (inactive) | 15.6 µM (inactive) | 15.7 µM (inactive) | 16.2 µM (inactive)
O=c1[nH]nc(Cc2ccccc2)n1/N=C/c1ccc([N+](=O)[O-])o1 | 3.11 µM (inactive) | 1.16 µM (inactive) | 1.89 µM (inactive) | 3.99 µM (inactive) | 2.06 µM (inactive) | 2.95 µM (inactive) | 1.68 µM (inactive) | 3.38 µM (inactive) | 2.42 µM (inactive) | 2.75 µM (inactive) | 0.292 µM (active) | 4.92 µM (inactive) | 6.68 µM (inactive) | 2.16 µM (inactive) | 3.15 µM (inactive) | 1.88 µM (inactive) | 7.62 µM (inactive) | 2.11 µM (inactive) | 4.83 µM (inactive) | 3.3 µM (inactive)
